In patent US4508730A, “1,7-Dihydro-pyrrolo[3,4-e][1,4]diazepin-2(3H)-one derivatives a process for preparing them and their use as anticonvulsant and anti-anxiety agents” (Gruppo Lepetit S.p.A., priority 1982, dated 1985):
Counter-ions that a name gives are not always drawn.

Tests used:
[1] = antipentylenetetrazole bioassay in mice; format: in vivo; settings: Mus musculus, 2 h; for responders at 100 mg/kg: sc, 100 mg/kg compound 30 minutes before fatal dose of pentylenetetrazole (140 mg/kg s.c.), read-out: protection against pentylenetetrazole (animals still alive two hours after administration); for ED50: ip, i.p., pentylenetetrazole 140 mg/kg s.c., read-out: ED50 (dose at which 50% of the treated animals are protected)
Method: To evaluate the anticonvulsant activity the compounds of the present invention have been submitted to the antipentylenetetrazole bioassay in mice. The experiments have been carried out by following essentially the methodology described by Berger in J. Pharm. Exptl. Ther. 104, 468, (1952). More particularly, a fatal dose of pentylenetetrazole (140 mg/kg s.c.) was administered to groups of ten mice each, treated, 30 minutes before the administration of the convulsant agent, with a selected dose (100 mg/kg) of the potential anticonvulsant compound. […] Since the animals of the control group died within 30 minutes, the effectiveness of the compounds tested was expressed as the number of animals of the group which were still alive two hours after the administration of pentylenetetrazole, out of the total number of animals of the group (10). In this experiment the compounds of examples 1,2,8, 9, 10, 11, 13, 14, 15, 16, and 17 were fully effective giving a 100% protection against pentylenetetrazole.

benzodiazepine receptors = assay: "benzodiazepine receptors" test, displacement of ^3 H-Diazepam from rat brain receptors; format: binding; settings: ^3 H-Diazepam displacement, read-out: In vitro Ki
Method: The anti-anxiety activity of the compounds of the present invention was shown by submitting the compounds to the "benzodiazepine receptors" test.
These experiments were carried out by following the method described by H. Mohler and T. Okada in Life Sciences, Vol. 20, 2101-2110 (1977).

GABA receptor = GABA receptor assay, displacement of ^3 H-GABA; format: binding; settings: for IC50: ^3 H-GABA displacement; for displacement of ^3 H-GABA from its receptors: at micromolar concentrations
Method: Furthermore some of the compounds of the present invention have been tested in the GABA receptor assay. In this test which was carried out by following the methodology described by M. Herschel and R. J. Baldessarini in Life Sciences, 24, 1849-1854, (1979), the compounds of examples 3 and 15 resulted to be active in displacing more than 50% of ^3 H-GABA from its receptors at micromolar concentrations. […] (As for the GABA's mediating effect of the anxiolytic action of benzodiazepines, see for instance S. J. Enna--Biochemical Pharmacology--30, No. 9, 907-913, (1981)).

SMILES: Cc1c2c(cn1C)N(C)C(=O)C(OC(=O)c1ccc(-c3ccccc3)cc1)N=C2c1ccccc1Cl (centres unmarked) [Example 11]
- responders at 100 mg/kg [1]: 100%

SMILES: COc1ccc(C(=O)OC2N=C(c3ccccc3Cl)c3c(cn(C)c3C)N(C)C2=O)cc1 (centres unmarked) [Example 10]
- Ki (benzodiazepine receptors): 8.1 nM
- responders at 100 mg/kg [1]: 100%

SMILES: COC1N=C(c2ccccc2Cl)c2c(cn(C)c2C)N(C)C1=O.Cl.O (centres unmarked) [Example 17, 5-(2-chlorophenyl)-1,7-dihydro-3-methoxy-1,6,7-trimethyl-pyrrolo[3,4-e][1,4]diazepin-2(3H)-one hydrochloride hydrate]
- Ki (benzodiazepine receptors): 23 nM
- ED50 [1]: 8 mg/kg
- responders at 100 mg/kg [1]: 100%

SMILES: Cc1c2c(cn1C)N(C)C(=O)C(OC(=O)CCC(=O)O)N=C2c1ccccc1Cl (centres unmarked) [Example 13, 1,4-butandioic acid 1-[5-(2-chlorophenyl)-1,3,7-trihydro-1,6,7-trimethyl-2-oxo-pyrrolo[3,4-e][1,4]diazepinyl]ester]
- responders at 100 mg/kg [1]: 100%

SMILES: Cc1c2c(cn1C)N(C)C(=O)C(OC(=O)C(C)C)N=C2c1ccccc1Cl (centres unmarked) [Example 9, 5-(2-chlorophenyl)-1,7-dihydro-1,6,7-trimethyl-3-[(2-methyl-1-oxopropyl)oxy]-pyrrolo[3,4-e][1,4]diazepin-2(3H)-one]
- Ki (benzodiazepine receptors): 4.1 nM
- ED50 [1]: 5 mg/kg
- responders at 100 mg/kg [1]: 100%

SMILES: Cc1c2c(cn1C)N(C)C(=O)C(OC(=O)c1ccccc1)N=C2c1ccccc1Cl (centres unmarked) [Example 1, 5-(2-chlorophenyl)-1,7-dihydro-1,6,7-trimethyl-3-(phenylcarbonyloxy)-pyrrolo[3,4-e][1,4]diazepin-2(3H)-one]
- Ki (benzodiazepine receptors): 6.7 nM
- responders at 100 mg/kg [1]: 100%

SMILES: CCOC1N=C(c2ccccc2Cl)c2c(cn(C)c2C)N(C)C1=O (centres unmarked) [Example 16, 5-(2-chlorophenyl)-3-ethoxy-1,7-dihydro-1,6,7-trimethyl-pyrrolo[3,4-e][1,4]diazepin-2(3H)-one hydrochloride hydrate]
- Ki (benzodiazepine receptors): 24.6 nM
- responders at 100 mg/kg [1]: 100%

SMILES: CCOC(=O)CCCNC(=O)CCC(=O)OC1N=C(c2ccccc2)c2c(cn(C)c2C)NC1=O (centres unmarked) [Example 15, hydrochloride]
- IC50 (GABA receptor): 3000 nM
- displacement of ^3 H-GABA from its receptors (GABA receptor): more than 50%
- Ki (benzodiazepine receptors): 38.9 nM
- responders at 100 mg/kg [1]: 100%

SMILES: Cc1ccccc1C(=O)OC1N=C(c2ccccc2Cl)c2c(cn(C)c2C)N(C)C1=O (centres unmarked) [Example 3]
- IC50 (GABA receptor): 35000 nM
- displacement of ^3 H-GABA from its receptors (GABA receptor): more than 50%
- Ki (benzodiazepine receptors): 1.7 nM

SMILES: Cc1c2c(cn1C)NC(=O)C(OC(=O)CCC(=O)O)N=C2c1ccccc1 (centres unmarked) [Example 14, 1,4-butandioic acid 1-[1,3,7-trihydro-6,7-dimethyl-2-oxo-5-phenyl-pyrrol[3,4-e][1,4]diazepinyl]ester]
- responders at 100 mg/kg [1]: 100%

SMILES: CCOC(=O)CCCNC1N=C(c2ccccc2Cl)c2c(cn(C)c2C)N(C)C1=O (centres unmarked) [Example 18, 5-(2-chlorophenyl)-3-[[3-(ethoxycarbonyl)propyl]amino]-1,7-dihydro-1,6,7-trimethyl-pyrrolo[3,4-e][1,4]diazepin-2(3H)-one]
- Ki (benzodiazepine receptors): 46.1 nM

SMILES: Cc1c2c(cn1C)N(C)C(=O)C(OC(=O)C(C)(C)C)N=C2c1ccccc1Cl (centres unmarked) [Example 2, 5-(2-chlorophenyl)-1,7-dihydro-1,6,7-trimethyl-3-(2,2-dimethylpropanoyloxy)-pyrrolo[3,4-e][1,4]diazepin-2(3H)-one]
- Ki (benzodiazepine receptors): 17.2 nM
- responders at 100 mg/kg [1]: 100%

SMILES: CCCC(=O)OC1N=C(c2ccccc2)c2c(cn(C)c2C)NC1=O (centres unmarked) [Example 8, 1,7-dihydro-6,7-dimethyl-3-[(1-oxobutyl)oxy]-5-phenyl-pyrrolo[3,4-e][1,4]diazepin-2(3H)-one]
- responders at 100 mg/kg [1]: 100%
